The text below walks through data of ChEMBL document CHEMBL1201862, “PubChem BioAssay data set” (2004).

What all share (test): inhibition of tumour cell growth, NCI panel, 48 h
For test [1], the system named is 786-0.
Test [2] relates to HCC 2998.
In test [3] the test system is HCT-15.
Test [4] has as its system HOP-92.
Test [5] deals with HT-29.
Test [6] concerns Hs-578T.
Test [7] has as its system IGROV-1.
The test system of test [8] is M14.
The test system of test [9] is MDA-N.
Test [10] concerns NCI-H522.
In test [11] the test system is OVCAR-3.
Test [12] deals with PC-3.
For test [13], the system named is SF-295.
Test [14] has as its system SK-MEL-2.
Test [15] deals with SN12C.
In test [16] the test system is T47D.
The subject of test [17] is TK-10.
In test [18] the test system is UACC-257.
Test [19] deals with UACC-62.
In test [20] the test system is UO-31.

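Five concentrations, 48 hours, 96-well plates. Here, GI50 denotes the concentration required for 50% inhibition of growth.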 The source made the active and inactive calls. Rule as the data show it: active = GI50 up to about 1.1 µM and inactive = higher.

For `Cc1c(N(C)C)ccc2c(=O)c3cccc(CC(=O)O)c3oc12`, the GI50 in test [1] is > 100 µM (inactive); in test [2], > 100 µM (inactive); in test [3], more than 100 µM; in test [4] it was > 64.9 µM (inactive); in [5] it was > 100 µM (inactive); in [6] it was > 100 µM (inactive). In addition, the GI50 in test [7], in test [8], in [9], in [10], in [11] and in test [12] was > 100 µM (inactive) throughout. For the same compound, the GI50 in [13], in test [14], in [15], in [16], in test [17] and in test [18] was > 100 µM (inactive) in each case. Further, the GI50 in [19] and in [20] was > 100 µM (inactive) each time.

Regarding `COC1CC(OC2CCC3(C)C(=CCC4C3C(OC(C)=O)C(OC(=O)CC(C)C)C3(C)C(C(C)=O)CCC43O)C2)OC(C)C1OC1CC(OC)C(OC2CC(OC)C(OC3OC(C)C(OC4OC(CO)C(O)C(O)C4O)C(OC)C3O)C(C)O2)C(C)O1` (stereo not given), the GI50 in test [1] is > 75 µM (inactive); in test [2], > 75 µM (inactive); in [3], more than 75 µM; in test [4] it was > 75 µM (inactive); in [5], > 75 µM (inactive); in test [6], > 75 µM (inactive). Besides, the GI50 in [7], in [8], in test [9], in test [10], in test [11] and in test [12] was > 75 µM (inactive) each time. In addition, the GI50 in [13], in test [14], in test [15], in test [16], in [17] and in [18] was > 75 µM (inactive) each time. The GI50 in test [19] and in test [20] was > 75 µM (inactive) in each case.

With `COc1ccc(-c2c(-c3ccccc3)c(C)nc3[nH]c(=S)[nH]c(=S)c23)cc1OC`, the GI50 in test [1] is 35.6 µM (inactive); in test [2], 37.6 µM (inactive); in test [3] it was 30.9 µM; in test [4], 33.8 µM (inactive); in [5], 41 µM (inactive); in test [6], 35.6 µM (inactive). Further, the GI50 in test [7] was 36.3 µM (inactive); in test [8] it was 36.1 µM (inactive); in test [9], 30.1 µM (inactive); in test [10], 27.1 µM (inactive); in [11] it was 20.3 µM (inactive); in test [12], 25.1 µM (inactive). The GI50 in test [13] was 42.1 µM (inactive); in [14] it was 20.4 µM (inactive); in [15] it was 21.6 µM (inactive); in [16], 38.3 µM (inactive); in test [17], 45.7 µM (inactive); in test [18] it was 36.6 µM (inactive). Besides, the GI50 in [19] was 16.1 µM (inactive); in [20], 21.6 µM (inactive).

Turning to `COc1cc(OC)c(OC)cc1/C=C\c1ccnc2ccccc12`, the GI50 in test [1] was 0.687 µM (active); in [2], 1.02 µM (active); in test [3], 0.437 µM; in test [4] it was 1.21 µM (inactive); in [5], 0.522 µM (active); in test [6] it was 0.252 µM (active). For the same compound, the GI50 in [7] is 0.897 µM (active); in test [8], 0.574 µM (active); in [9] it was 0.185 µM (active); in test [10], 0.333 µM (active); in [11], 0.387 µM (active); in test [12], 0.532 µM (active). For the same compound, the GI50 in test [13] is 0.48 µM (active); in test [14], 0.308 µM (active); in [15], 0.622 µM (active); in test [16], 0.771 µM (active); in test [17] it was 2.17 µM (inactive); in test [18], 4.88 µM (inactive). For the same compound, the figures for the GI50 in test [19] and in test [20] were 0.541 µM (active) and 0.944 µM (active), respectively.

`N=C1/C(=C/c2ccc(F)cc2)C(=O)N=C2SC=NN12`: the GI50 in test [1] is > 100 µM (inactive); in test [2], > 100 µM (inactive); in test [3], more than 100 µM; in test [4] it was 69.2 µM (inactive); in [5], > 100 µM (inactive); in test [6], > 100 µM (inactive). Moreover, the GI50 in [7] is > 100 µM (inactive); in test [8] it was > 100 µM (inactive); in test [9], 83.2 µM (inactive); in test [10], > 100 µM (inactive); in [11], > 100 µM (inactive); in test [12], > 100 µM (inactive). The GI50 in test [13], in test [14], in test [15], in [16], in [17] and in [18] was > 100 µM (inactive) each time. Moreover, the GI50 in test [19] was 87.9 µM (inactive); in test [20] it was > 100 µM (inactive).

In the case of `Cc1ccc(C(=O)N/N=C2/C(=O)c3c4ccccc4cc4cccc2c34)cc1`, the GI50 in test [1] was 14.2 µM (inactive); in test [2] it was 38.8 µM (inactive); in test [3] it was 20.6 µM; in test [4] it was 46.6 µM (inactive); in [5] it was 21.6 µM (inactive); in test [6], 19.1 µM (inactive). The GI50 in test [7] is 15.8 µM (inactive); in test [8], 31.4 µM (inactive); in [9], 37.8 µM (inactive); in [10], 18 µM (inactive); in [11], 22.5 µM (inactive); in test [12] it was 25.3 µM (inactive). For the same compound, the GI50 in [13] is 19.5 µM (inactive); in [14], 64 µM (inactive); in [15], 21.8 µM (inactive); in [16] it was 13.4 µM (inactive); in test [17] it was 25.2 µM (inactive); in test [18] it was > 87.9 µM (inactive). For the same compound, the GI50 in test [19] was 26.9 µM (inactive); in [20], 17.2 µM (inactive).

As to `COc1ccc(N2C(=O)C3c4[nH]c5c(C)cccc5c4C4CCC(C(C)C)CC4C3C2=O)cc1` (stereo not given), the GI50 was 4.38 µM (inactive) in [1]; 10.3 µM (inactive) in test [2]; 10 µM in [3]; 12.1 µM (inactive) in test [4]; 3.37 µM (inactive) in test [5]; 8.09 µM (inactive) in [6]. For the same compound, the GI50 in test [7] was 8.99 µM (inactive); in test [8] it was 9.53 µM (inactive); in test [9], 10.3 µM (inactive); in [10], 4.51 µM (inactive); in test [11] it was 13.9 µM (inactive); in test [12], 8.87 µM (inactive). The GI50 in test [13] was 14.7 µM (inactive); in [14] it was 16.7 µM (inactive); in [15] it was 8.3 µM (inactive); in test [16] it was 5.96 µM (inactive); in test [17], 24.4 µM (inactive); in test [18] it was 31 µM (inactive). Also, the GI50 in test [19] is > 10 µM (inactive); in test [20], 11.8 µM (inactive).
